From ChEMBL document CHEMBL3593237, “Synthesis and biological evaluation of isoflavone amide derivatives with antihyperlipidemic and preadipocyte antiproliferative activities” (Bioorg Med Chem, 2015) come the findings set out here.

Activity calls are given as the source filed them. The calls are words filed in the database; no cut-off is given here.

Series [1] deals with T1, Cholesteryl ester transfer protein (Oryctolagus cuniculus, UniProt P22687).
T1 sequence (P22687 whole entry): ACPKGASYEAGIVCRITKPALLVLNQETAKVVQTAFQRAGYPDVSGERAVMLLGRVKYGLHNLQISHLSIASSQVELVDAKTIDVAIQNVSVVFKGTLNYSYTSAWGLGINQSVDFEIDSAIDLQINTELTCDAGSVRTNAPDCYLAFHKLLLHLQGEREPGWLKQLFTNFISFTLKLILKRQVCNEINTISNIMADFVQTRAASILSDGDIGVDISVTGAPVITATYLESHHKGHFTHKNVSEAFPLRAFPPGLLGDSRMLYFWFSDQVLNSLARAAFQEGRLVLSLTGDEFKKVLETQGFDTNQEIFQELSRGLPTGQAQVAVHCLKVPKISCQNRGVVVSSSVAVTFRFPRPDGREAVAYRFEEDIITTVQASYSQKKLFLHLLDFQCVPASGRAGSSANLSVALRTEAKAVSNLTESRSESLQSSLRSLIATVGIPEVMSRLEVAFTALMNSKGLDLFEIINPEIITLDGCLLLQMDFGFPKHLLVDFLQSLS
The series is described as follows: Inhibition of CETP in rabbit serum incubated for 1 hr using NBD-labeled cholesterol in HDL and LDL by fluorescence based assay.

In series [2] the test system is 3T3-L1. The experiment in a line: Inhibition of cell proliferation of mouse 3T3L1 cells at 100 uM incubated for 48 hrs by MTT assay. The class given is functional, cell-based. For orientation: Tetrazolium dyes change colour on reduction, which living cells bring about.
The target in series [3] is T2, Cholesteryl ester transfer protein (Oryctolagus cuniculus) (UniProt P22687).
T2 sequence (whole entry): T1 sequence (P22687 whole entry)
The series is described as follows: Inhibition of CETP in rabbit serum at 100 uM incubated for 1 hr using NBD-labeled cholesterol in HDL and LDL by fluorescence based assay.

Series [4] concerns Syrian golden hamster. The experiment in a line: Antihyperlipidemic activity in Syrian golden hamster model of high lipid diet-induced dyslipidemia model assessed as increase in HDL-C at 50 mg/kg/day, po for 28 days. The class given is functional, Mesocricetus auratus.
Series [5] relates to HepG2. The series is described as follows: Toxicity against human HepG2 cells assessed as inhibition of cell proliferation at 100 uM incubated for 48 hrs by MTT assay. The class given is cell-based. Particulars: hepg2, 48 h.
In series [6] the test system is Syrian golden hamster. The experiment in a line: Antihyperlipidemic activity in Syrian golden hamster model of high lipid diet-induced dyslipidemia model assessed as reduction in LDL-C at 50 mg/kg/day, po for 28 days. The arrangement: scale not given: the % may be the effect or the level left. The class given is functional, Mesocricetus auratus.

One may read the IC50 as the concentration at which inhibition is half-maximal. With `CC(=O)Oc1ccc2c(=O)c(-c3ccc(NC(=O)COc4ccccc4C)cc3)coc2c1`, half-maximal inhibition in series [1] (IC50) was put at 8.42 µM. Moreover, the inhibition entry in series [2] and in series [3] was “Active” throughout.

As to `CCCCCCCC/C=C\CCCCCCCC(=O)Oc1ccc2c(=O)c(-c3ccc(OC)cc3)coc2c1`, the inhibition entry in series [2] is “Active”.

On to `CC(=O)Oc1ccc2c(=O)c(-c3ccc(NC(=O)COc4cccc5ccccc45)cc3)coc2c1`, for which the inhibition entry in series [2] and in series [3] was “Active” throughout.

Take `CC(=O)Oc1ccc2c(=O)c(-c3ccc(NC(=O)COc4ccccc4)cc3)coc2c1`: the Activity in series [4] is given as 66%; in series [5], “Non-toxic”; in series [6] it was 44.6%. The same molecule returned an IC50 in series [1] of 1.52 µM. In addition, the inhibition entry in series [2] and in series [3] was “Active” in each case.

In the case of `O=C(COc1cccc2ccccc12)Nc1ccc(-c2coc3cc(O)ccc3c2=O)cc1`, the inhibition entry in series [2] is “inactive”. In series [3], the inhibition result is “Active”.

Take `Cc1ccc(OCC(=O)Nc2ccc(-c3coc4cc(O)ccc4c3=O)cc2)cc1`: the inhibition entry in series [2] is “inactive”. The inhibition result in series [3] is “Active”.

Regarding `COc1ccccc1OCC(=O)Nc1ccc(-c2coc3cc(OC(C)=O)ccc3c2=O)cc1`, the inhibition result in series [2] is “Active”. The inhibition result in series [3] was “inactive”.

Turning to `COc1ccccc1OCC(=O)Nc1ccc(-c2coc3cc(O)ccc3c2=O)cc1`, the inhibition result in series [2] and in series [3] was “inactive” each time.

`COc1cc(F)c(C(C)C)cc1-c1ccc(C(F)(F)F)cc1CN1C(=O)O[C@H](c2cc(C(F)(F)F)cc(C(F)(F)F)c2)[C@@H]1C`: the inhibition entry in series [3] is “Active”.

As to `Cc1ccccc1OCC(=O)Nc1ccc(-c2coc3cc(O)ccc3c2=O)cc1`, the inhibition entry in series [2] is “inactive”. The inhibition entry in series [3] was “Active”.

`O=C(COc1ccccc1)Nc1ccc(-c2coc3cc(O)ccc3c2=O)cc1`: the inhibition entry in series [2] was “inactive”. For the same molecule, in series [3], the inhibition entry is “Active”.

`Cc1cccc(OCC(=O)Nc2ccc(-c3coc4cc(O)ccc4c3=O)cc2)c1`: the inhibition result in series [2] was “inactive”. Moreover, the inhibition entry in series [3] was “Active”.

Consider `CC(=O)Oc1ccc2c(=O)c(-c3ccc(NC(=O)COc4ccc(C)cc4)cc3)coc2c1`, for which the inhibition entry in series [2] was “Active”. The inhibition result in series [3] is “inactive”.

For `CC(=O)Oc1ccc2c(=O)c(-c3ccc(NC(=O)COc4cccc(C)c4)cc3)coc2c1`, in series [2], the inhibition entry was “Active”. Also, in series [3], the inhibition entry is “inactive”.
